Data published in US20250235543A1, “MODIFIED PROTEINS AND PROTEIN DEGRADERS” (Cullgen (Shanghai), Inc., priority 2021, published 2025).
One block for each compound: values may come before it.

Assays:
Format in all cases: cell-based
CDK4, CDK6 = test: Immunoblot of CDK4 and CDK6 protein levels in Calu-1 cells; conditions: 8 hours, dose range
Procedure: Specific exemplary heterobifunctional compounds were characterized in Calu-1, BT-549 and other cells. Cells that express cyclin D1-3 and CDK4/6 proteins were treated with heterobifunctional compounds disclosed herein at indicated concentrations for 16 hours. Cells were collected, lysed and subject to immunoblotting using an antibody specific to cyclin D1, cyclin D2, cyclin D3, CDK4, CDK6 or phosphorylated R^b proteins. Tubulin or GAPDH was used as the loading control. DMSO treatment was used as the negative control.
In a time-course study, Calu-1 cells were treated with 500 nM CPD-002, or 100 nM CPD-031 for indicated period of time prior to immunoblotting (FIG. 4A-4B).
To verify that heterobifunctional compound-mediated degradation is dependent on the binding to CDK4-cyclin D complex, we designed three negative control compounds, CPD-042, CPD-049 and CPD-380, which are derived from CPD-002 CPD-031 and CPD-343, respectively. These three control compounds bear the same DDB1 ligand and linker as their corresponding active heterobifunctional compounds but with modified warheads to impair the binding of the control compounds to CDK4. […] Two cereblon (CRBN)-recruiting reference heterobifunctional compounds, CP-10 (Su, J Med Chem, 2019; CAS No.: 2366268-80-4) and BSJ-03-123 (Brand, Cell Chem Biol, 2019; CAS No.: 2361493-16-3) were analyzed in Calu-1 cells.

Calu-1 cells = test: Anti-viability / anti-proliferation in Calu-1 cells; conditions: 3 days
Procedure: FIG. 6 show immunoblots of cyclin D1, cyclin D2, cyclin D3, and CDK4 proteins expressed by Calu-1 cells after treatment with a dose range of control compounds CPD-042 (A), or CPD-049 (B) for 16 hours, and anti-viability curves of Calu-1 cells in the presence of CPD-002 and CPD-042 (C), or CPD-031 and CPD-049 (D).
FIG. 11A-11B show immunoblots of cyclin D1, CDK4, and CDK6 proteins expressed by Calu-1 cells after treatment with a dose range of heterobifunctional reference compound CP-10, or BSJ-03-123 for 8 hours (FIG. 11A), and anti-viability curves of Calu-1 cells in the presence of CP-10, or BSJ-03-123 for 3 days (FIG. 11B).
(§1) To verify that heterobifunctional compound-mediated degradation is dependent on the binding to CDK4-cyclin D complex, we designed three negative control compounds, CPD-042, CPD-049 and CPD-380, which are derived from CPD-002 CPD-031 and CPD-343, respectively. These three control compounds bear the same DDB1 ligand and linker as their corresponding active heterobifunctional compounds but with modified warheads to impair the binding of the control compounds to CDK4. […] However, the binding to CDK4 is not sufficient for cyclin D degradation. Two cereblon (CRBN)-recruiting reference heterobifunctional compounds, CP-10 (Su, J Med Chem, 2019; CAS No.: 2366268-80-4) and BSJ-03-123 (Brand, Cell Chem Biol, 2019; CAS No.: 2361493-16-3) were analyzed in Calu-1 cells.

Calu-1 = test: Cell viability assay, Calu-1; conditions: Calu-1 cells, 96-well plates, serial dilution, 3 days
Procedure: Cells were treated with CDK4/6 inhibitors palbociclib, ribociclib, or abemaciclib, or heterobifunctional compounds CPD-002 or CPD-031 following a 9-point serial dilution for 3 days.
(§2) Cells were seeded at a density of 2,000-5,000 cells per well in 96-well assay plates and treated with test compounds following a 10-point serial dilution for 3-6 days. Cell viability was determined using the CellTiter-Lumi assay kit according to the manufacturer's instructions. The dose-response curves were determined and IC50 values were calculated using the GraphPad Prism software following a nonlinear regression (least squares fit) method. Data presented was mean±standard deviation (SD) unless otherwise indicated.

[1] = test system: cyclin D1, cyclin D2, cyclin D3, CDK4 and CDK6; test: Immunoblotting of cyclin D and CDK4/6 protein levels in Calu-1 cells; conditions: indicated concentrations, 8 hours
Procedure: Calu-1 (FIG. 2A) or BT-549 (FIG. 2B) cells were treated with CPD-002, CPD-004, or palbociclib at indicated concentrations for 16 hours.
Calu-1 cells were treated with CPD-031 at indicated concentrations for 16 hours.
Calu-1 cells were treated with CPD-002 or CPD-031 at 500 nM or 100 nM, respectively for indicated period of time.
Calu-1 cells were pre-treated with DMSO, 20 μM MG-132 (MG), 5 μM MLN4924 (MLN) or 1 μM TAK-243 (TAK) for 2 hours, and subsequently incubated with 500 nM CPD-002, 500 nM CPD-004, or 100 nM CPD-031 for another 4 h or 2 h prior to immunoblotting (FIG. 5A-5B).
Calu-1 cells were treated with a dose range of negative control compounds CPD-042 or CPD-049 for 16 hours (FIG. 6A-6B).
Calu-1 cells were treated with reference compounds CP-10 or BSJ-03-123 at indicated concentrations for 8 hours.
(§3) Cultured cells were washed with cold PBS once and lysed in cold RIPA buffer supplemented with protease inhibitors and phosphatase inhibitors (Beyotime Biotechnology). The solutions were then incubated at 4° C. for 30 min with gentle agitation to fully lysed cells. Cell lysates were centrifuged at 13,000 rpm for 10 min at 4° C. and pellets were discarded. Total protein concentrations in the lysates were determined following BCA assays (Beyotime Biotechnology). Cell lysates were mixed with Laemmli loading buffer and heated at 99° C. for 5 min. Proteins were resolved on SDS-PAGE and visualized using Western ECL Substrate kits on a ChemiDoc MP Imaging system (Bio-Rad). Protein bands were quantitated using the Image Lab software provided by Bio-Rad.

[2] = test system: cyclin D1, cyclin D2, cyclin D3; test: Immunoblot of cyclin D protein levels in Calu-1 (and BT-549) cells; conditions: Calu-1 cells, 8 hours, dose range
P300 and CBP [3] = test: Immunoblot of P300 and CBP protein levels in LNCaP, Calu-1, NCI-H1703 or MM.1R cells; conditions: Calu-1, NCI-H1703 or MM.1R cell lines, 8 hours
Excerpt: Additional exemplary heterobifunctional compounds were designed to modulate the protein levels of either P300/CBP, or BRD4, and characterized in multiple cell lines. […] Taken together, DDB1 ligands conjugating with different target ligands may modulate the cellular target protein levels of cyclin D, CDK4/6, P300/CBP and BRD4.

P300/CBP = P300/CBP cellular protein degradation
Outline: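 Treated cells lysed in RIPA buffer with protease and phosphatase inhibitors, protein normalized by BCA assay. P300/CBP levels assessed by SDS-PAGE Western blot with ECL detection and band densitometry.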

P300 and CBP [4] = test: Immunoblotting of P300 and CBP protein levels in multiple cell lines; conditions: LNCaP, Calu-1, NCI-H1703, or MM.1R cells, 8 hours
Procedure: LNCaP, Calu-1, NCI-H1703, or MM.1R cells were treated with CPD-191 at indicated concentrations for 8 hours.
as §3

[5] = test system: cyclin D1, cyclin D3, CDK4; test: Immunoblot of cyclin D and CDK4 degradation in T47D cells; conditions: 48 hours, CPD-380 vs CPD-343
Procedure: (§4) FIG. 10A-10B show immunoblots of cyclin D1, cyclin D3, CDK4, p-Rb, FoxM1 and cyclin A2 proteins expressed by T47D cells after treatment with a dose range of heterobifunctional compound CPD-343, or its control compound CPD-380 for 48 hours (FIG. 10A), and anti-viability curves of T47D cells in the presence of CP-343, or CPD-380 for 6 days (FIG. 10B).
as §1

T47D cells [6] = test: Anti-viability / anti-proliferation in T47D cells; conditions: 6 days, CPD-380 vs CPD-343
Procedure: as §4, §1

T47D cells [7] = test: Flow cytometric analysis of Annexin V/7-AAD stained T47D cells; conditions: 6 days
Procedure: ER^+ breast cancer T47D cells were treated with DMSO, palbociclib, heterobifunctional compound CPD-343, or negative control compound CPD-380 for 6 days at doses approximating IC50 and IC90 concentrations determined in FIGS. 10A and 13. Cells were harvested by trypsinization, staining was carried out using the Annexin V Apoptosis Detection Kit. The percentages of early apoptotic (Annexin V^+7-AAD^−, lower right quadrant), late apoptotic (Annexin V^+7-AAD^+, upper right quadrant) and necrotic cells (Annexin V-7-AAD^+, upper left quadrant) are indicated on dot plots. […] Furthermore, we developed one ER^+ breast cancer T47D model with acquired resistance after long period of treatment with 1 μM palbociclib (over IC90). Cells were deemed resistant when growing in the presence of palbo at the same rate as parental cells. Palbo resistance was determined by CellTiter-Lumi cell viability assay.

Cyclin D = test: Immunoblotting of degradation in T47D cells; conditions: dose range, 48 hours
Procedure: T47D cells were treated with a dose range of heterobifunctional compound CPD-343 or its negative control compound CPD-380 for 48 hours.
as §3

T47D cells [8] = test: Cell viability assay, T47D; conditions: 10-point serial dilution, 6 days
Procedure: T47D cells were seeded in 96-well plates and treated with of CP-343, or CPD-380 following a 10-point serial dilution for 6 days.
as §2

T47D cells [9] = test: Annexin V apoptosis flow cytometry in T47D cells; conditions: 6 days, doses approximating IC50 and IC90
Procedure: T47D cells were treated with DMSO, palbociclib, heterobifunctional compound CPD-343, or negative control compound CPD-380 for 6 days at doses approximating IC50 and IC90 concentrations as indicated. Cells were harvested by trypsinization, staining was carried out using the Annexin V Apoptosis Detection Kit.
Assays were performed on the CytoFLEX Cytometer (Beckman Coulter), and data were analyzed using CytExpert software. For cell death and apoptosis analysis, cells were harvested by trypsinization, staining was carried out using the Annexin V Apoptosis Detection Kit (BD Biosciences). Briefly, cells were resuspended in 1× binding buffer and incubated with fluorochrome-conjugated Annexin V and 7-AAD for 15 min in darkness at room temperature.

Structure (SMILES): CC(=O)c1c(C)c2cnc(Nc3ccc(N4CCN(CCOCCOCCOCCNC(=O)COc5cccc6c5C(=O)N(C5CCC(=O)NC5=O)C6=O)CC4)cn3)nc2n(C2CCCC2)c1=O (centres unmarked) [BSJ-03-123, reference compound]
- CDK4 and CDK6 protein levels (CDK4, CDK6): significantly reduced
- Calu-1 cell growth (Calu-1 cells): did not affect cyclin D1 protein levels (FIG. 11A) or suppress Calu-1 cell growth
- cell viability (cellular anti-proliferation activity) (Calu-1): didn't significantly suppress tumor cell viability
- CDK4 and CDK6 protein levels [1]: significantly reduced CDK4 and CDK6 protein levels
- cyclin DC protein levels [1]: didn't affect cyclin DC protein levels
- cyclin D1 protein levels [2]: did not affect

- DC50 (P300 and CBP [3]): < 10 nM
Structure (SMILES): CC(=O)N1CCc2c(c(N3CCCc4cc(-c5cnn(C)c5)c(C(F)F)cc43)nn2C2CCN(CC(=O)NCCCCNc3ccc(C(=O)Nc4ncc(C)s4)c(C)c3)CC2)C1 [CPD-191]
- reduction of P300 and CBP protein levels (P300 and CBP [3]; dose range): significantly reduced
- P300/CBP Degradation (100 nM) (P300/CBP): A (degradation activity >= 80%)
- P300 and CBP protein levels (P300 and CBP [4]): reduced P300 and CBP protein levels in a concentration-dependent manner

Structure (SMILES): CNc1ccc(C(=O)Nc2ccc(OC)nn2)c(NC(=O)CCOCCOCCNC(=O)CN2CCN(c3ccc(N(C)c4ncc5c(C)c(C(C)=O)c(=O)n(C6CCCC6)c5n4)nc3)CC2)c1 [CPD-380]
- decrease of degradation potency versus corresponding active compound [5]: > 15 fold
- decrease of cellular anti-proliferation activity versus corresponding active compound (T47D cells [6]): > 20 fold
- Annexin V+ population (T47D cells [7]; 10 nM): 7.1%
- Annexin V+ population (T47D cells [7]; 200 nM): 28.6%
- degradation potencies compared with corresponding active heterobifunctional compound (Cyclin D): much weaker degradation potencies
- cell viability (cellular anti-proliferation activity) (T47D cells [8]): much weaker cellular anti-proliferation activities
- effect on cell apoptosis (T47D cells [9]): much less effect on cell apoptosis
